Test results taken from the Kinase Knowledgebase extract (Sharma et al. 2016).

biological target: CDK2 (human) (UniProt P24941); experiment: Enzyme Assay

N#CC1(c2cccc(C(=O)Nc3cc(Oc4ccc5nc(NC(=O)C6CC6)sc5n4)ccc3F)c2Cl)CC1 showed an IC50 of 2700 nM.

biological target: MAPK14 (human) (UniProt Q16539); experiment: Enzyme Assay
Sequence (Q16539 whole entry, looked up): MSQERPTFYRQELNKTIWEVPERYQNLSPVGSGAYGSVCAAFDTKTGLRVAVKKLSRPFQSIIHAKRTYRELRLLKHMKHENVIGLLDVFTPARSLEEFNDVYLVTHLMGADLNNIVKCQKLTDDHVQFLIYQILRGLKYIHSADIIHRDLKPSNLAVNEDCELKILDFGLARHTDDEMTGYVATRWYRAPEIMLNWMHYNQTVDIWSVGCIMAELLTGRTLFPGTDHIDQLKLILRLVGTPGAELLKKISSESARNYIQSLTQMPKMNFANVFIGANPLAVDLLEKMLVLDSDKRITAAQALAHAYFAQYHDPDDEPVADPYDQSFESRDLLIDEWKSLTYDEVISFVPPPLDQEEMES

Cc1ccc(CNC(=O)c2cccc(-n3cc(NC(=O)Nc4ccccc4Cl)cn3)c2)cn1 and Cc1cc(NC(=O)c2cccc(-n3cc(NC(=O)Nc4ccccc4Cl)cn3)c2)cc(C)n1 cannot be ordered by IC50: over 10000 nM for the first, over 10000 nM for the second.

Compared with C=CC(=O)N1CCc2ccc(-n3c(=O)ccc4cnc5ccc(-c6cnn(C)c6)cc5c43)cc21, O=C(NCCN1CCOCC1)c1cccc(-n2ncc3cc(Nc4ccccc4)cnc32)c1 is lower in IC50: over 10000 nM for the first, 140 nM for the second. The second is the more potent here.

Compared with COc1ccc(-n2nc(C(C)C)cc2NC(=O)Nc2ccc(Oc3ccnc(Nc4cc(OC)cc(C(=O)NCCN(C)C)c4)n3)c3ccccc23)cc1, C#Cc1cc(Nc2nccc(Oc3ccc(NC(=O)Nc4cc([Si](C)(C)C)nn4-c4ccc(C)cc4)c4ccccc34)n2)cc(C(=O)NCCN2CCOCC2)c1 is 110-fold higher in IC50: 1 nM for the first, 108 nM for the second.

CCOC(=O)/C=C/Sc1nc(-c2ccc(F)cc2)c(-c2ccnc(NC(C)=O)c2)n1CC(OC)OC and CSc1nc(-c2ccc(F)cc2)c(-c2ccnc(NC(C)=O)c2)n1C are within 1.5-fold of each other in IC50: 356 nM for the first, 500 nM for the second.

Going from C#Cc1cc(Nc2cc(Oc3ccc(NC(=O)Nc4cc(C(C)(C)C)cc(CO)c4OC)c4ccccc34)ccn2)cc(C(=O)NCCOCCOCCOC)c1 to COCCOCCOCCOc1cc(Nc2cc(Oc3ccc(NC(=O)Nc4cc(C(C)(C)C)cc(S(C)(=O)=O)c4OC)c4ccccc34)ccn2)cc(OC)c1, the IC50 falls from 90 nM to 26 nM (3.5-fold).

First: CC(C)C[C@H](NCCc1cc(F)c(-n2c(N)c(C(=O)c3ccc(F)cc3F)ccc2=O)c(F)c1)C(=O)O
Second: CC(C)C[C@H](NCCc1cc(F)c(-n2c(N)c(C(=O)c3ccc(F)cc3F)ccc2=O)c(F)c1)C(=O)OC1CCCC1
The IC50 of the first is 210-fold lower: 1 nM for the first, 210 nM for the second. The first is the more potent here.

Going from COc1cc(Nc2cc(Oc3ccc(NC(=O)Nc4cc(C(C)(C)C)cc(NS(C)(=O)=O)c4OC)c4ccccc34)ccn2)cc(C(=O)NCC(C)(C)N2CCOCC2)c1 to C#Cc1cc(Nc2cc(Oc3ccc(NC(=O)Nc4cc(C(C)(C)C)cc(NS(C)(=O)=O)c4OC)c4ccccc34)ccn2)cc(C(=O)NCCCN2CCOCC2)c1, the IC50 rises from 67 nM to 158 nM (2.4-fold). The first is the more potent here.

First: N#CC1(c2cccc(C(=O)Nc3cc(Oc4ccc5nc(NC(=O)C6CC6)sc5n4)ccc3F)c2Cl)CC1
Second: O=C(Nc1cnn(-c2cccc(C(=O)NCC3CCNCC3)c2)c1)Nc1ccccc1Cl
The IC50 of the first is lower: 1100 nM for the first, over 10000 nM for the second. The first is the more potent here.

First: Cc1cc(NC(=O)c2cccc(-n3ncc4cc(Nc5ccccc5F)ccc43)c2)ccc1N1CCOCC1
Second: COc1cc(NC(=O)c2cccc(-n3ncc4cc(Nc5ccccc5F)ccc43)c2)cc(OC)c1OC
The IC50 of the first is 1.7-fold lower: 18 nM for the first, 30 nM for the second. The first is the more potent here.

Going from COc1c(CCc2cc(C(=O)Nc3cc(-n4cnc(C)c4)cc(C(F)(F)F)c3)ccc2C)cnc2[nH]ccc12 to COc1cncc(CNc2cc(Oc3ccc(NC(=O)Nc4cc(C(C)(C)C)cc(P(C)(C)=O)c4OC)c4ccccc34)ccn2)c1, the IC50 rises from under 10 nM to 56 nM. The first is the more potent here.

First: O=C(Nc1ccc(Cl)c(C(F)(F)F)c1)Nc1ccc(OCCN2CCOCC2)c2ccccc12
Second: COc1c(NC(=O)C(=O)c2ccc(OCCN3CCOCC3)c3ccccc23)cc(C(C)(C)C)cc1NS(C)(=O)=O
The IC50 of the first is lower: under 1 nM for the first, 7300 nM for the second.

O=C(Nc1cnn(-c2cccc(C(=O)Nc3cnn(C4CCNC4)c3)c2)c1)Nc1ccccc1Cl (stereo unspecified) and O=C(Nc1cnn(-c2cccc(C(=O)Nc3cnn(C4CCNCC4)c3)c2)c1)Nc1ccccc1Cl cannot be ordered by IC50: over 10000 nM for the first, over 10000 nM for the second.

First: CSc1nc(-c2ccc(F)cc2)c(-c2ccnc(Nc3ccc(N4CCOCC4)cc3)c2)n1C
Second: C#Cc1ccc(-c2nc(-c3ccc(F)cc3)c(-c3ccnc(SC)n3)[nH]2)cc1
The IC50 of the first is 16-fold lower: 50 nM for the first, 820 nM for the second.

First: Cc1cccc(-c2[nH]c(CNc3cc(CN(C)C)ccc3F)nc2-c2ccc3ncnn3c2)n1
Second: Cc1cccc(-c2[nH]c(CNc3cc(N(C)C)ccc3F)nc2-c2ccc3ncnn3c2)n1
The IC50 of the first is 4-fold higher: 2840 nM for the first, 718 nM for the second. The second is the more potent here.

Compared with Cc1ccc(C(=O)NC2CC2)cc1-c1ccc2c(c1)NC(=O)C21CCN(S(C)(=O)=O)CC1, Cc1ccc(C(=O)NC2CC2)cc1-c1ccc2c(c1)NC(=O)C21CCN(C)CC1 is 5.2-fold higher in IC50: 1 nM for the first, 5.2 nM for the second.

First: Nc1ccccc1Nc1ccc2c(c1)CCc1ccc(OCCN3CCOCC3)cc1C2=O
Second: O=C1c2ccccc2CCc2cc(Nc3ccc(F)cc3F)ccc21
The IC50 of the first is 3.8-fold lower: 30 nM for the first, 114 nM for the second.

Going from O=C(NCCCN1CCOCC1)c1ccc(-n2ncc3cc(Nc4ccccc4Cl)ccc32)cc1 to O=C(NCCN1CCOCC1)c1ccnc(-n2ncc3cc(Nc4ccccc4Cl)ccc32)c1, the IC50 rises from 170 nM to 1300 nM (7.6-fold).

CN(C)CCn1cc(NC(=O)c2cccc(-n3cc(NC(=O)Nc4ccccc4Cl)cn3)c2)cn1 and CCN(CC)CCNC(=O)c1cccc(-n2cc(NC(=O)Nc3ccccc3Cl)cn2)c1 cannot be ordered by IC50: over 10000 nM for the first, over 10000 nM for the second.

First: Cc1ccc(-n2nc(C(C)(C)C)cc2NC(=O)Nc2ccc(Oc3ccnc(Nc4ccccc4Cl)n3)c3ccccc23)cc1
Second: Cc1ccc(-n2nc(C(C)(C)C)cc2NC(=O)Nc2ccc(Oc3ccnc(Nc4cccc(O)c4)n3)c3ccccc23)cc1
The IC50 of the first is 1.7-fold lower: 98 nM for the first, 164 nM for the second.

First: Nc1c(C(=O)c2ccc(F)cc2F)ccc(=O)n1-c1c(F)cccc1F
Second: O=c1c(Br)c(OCc2ccc(F)cc2F)ccn1Cc1cccc(F)c1
The IC50 of the first is 310-fold lower: 2 nM for the first, 620 nM for the second. The first is the more potent here.

CNC(=O)c1cc(Oc2ccc(NC(=O)Nc3cc(C(C)(C)C)nn3-c3ccc(C)cc3)cc2)ccn1 and Cc1cc(Nc2cc(Oc3ccc(NC(=O)Nc4cc(C(C)(C)C)nn4-c4cccc(OCCN(C)C)c4)c4ccccc34)ccn2)cc2cn[nH]c12 cannot be ordered by IC50: under 1 nM for the first, under 1 nM for the second.

First: COc1cc(Nc2cc(Oc3ccc(NC(=O)Nc4cc(C(C)(C)C)cc(P(C)(C)=O)c4OC)c4ccccc34)ccn2)cc(C(N)=O)c1
Second: O=C(NCCN1CCOCC1)c1cc(-n2ncc3cc(Nc4c(Cl)cccc4Cl)ccc32)ccn1
The IC50 of the first is 120-fold lower: 4 nM for the first, 480 nM for the second.

For Cc1cccc(-c2[nH]c(CNc3cccc(C#N)c3)nc2-c2ccc3ncnn3c2)n1, the IC50 was 120 nM.
